Broadly, the solubility is the dissolved amount per volume that the medium holds. The term IC50 denotes the concentration at which inhibition is half-maximal.

Data set [1] can be described thus: Solubility in the organic solvents PEG400, propyleneglycol and ethanol. The data set is classed as physicochemical. The settings on record: organic solvent or mixture. From the text:
Compounds of the invention display particularly high solubilities in organic solvents. The compounds of the invention are thus particularly useful for topical administration, e.g. to a mammal such as a human, e.g. to the skin of said mammal. The compounds are thus useful for formulation into compositions suitable for topical administration. Compounds displaying high solubility thus provide an advantage for topical administration over compounds having a lower solubility.
The solubility of certain compounds was determined in the organic solvents PEG400, propyleneglycol and ethanol.

Data set [2] is described as follows: Cellular CaCo2 permeability assay from apical to basal (A-B). The data set is classed as in vitro ADME. Particulars: human, Caco-2, read-out: Pe A-B (permeability). From the text:
The permeability in 10^−6 cm/s of compounds of formula (I) have been confirmed for selected example using a cellular CaCo2 permeability assay from apical to basal (A-B): […]
(In general: Caco-2 cells form a polarised layer with tight junctions and transporters.)

A further data set addresses T1, PI3K gamma (Homo sapiens, UniProt P48736).
T1 construct: His tag (C); made in house; host or cells: baculovirus (pVL1393); Tn5 or TiniPro insect cells; construct from Roger Williams lab, MRC LMB
Description: PI3K gamma kinase assay (Kinase-Glo luminescence). In kind it is biochemical. The procedure, abridged:
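Luminescent ATP-depletion (Kinase-Glo) assay with 150 nM PI3Kγ, 1 μM ATP and 10 μg/mL phosphatidylinositol in 10 mM Tris-HCl pH 7.5, 3 mM MgCl2, 50 mM NaCl, 0.05% CHAPS, 1 mM DTT; 120 min at room temperature. Eight-point dilutions; IC50 by four-parameter logistic fit.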
A general note: Kinase-Glo measures the ATP left after a reaction by luminescence.

The subject of data set [3] is S6 Ribosomal Protein phosphorylation Ser235/236 in TSC1 null mouse embryo fibroblast (MEF) cells. In words: Reverse protein array assay, S6 Ribosomal Protein phosphorylation Ser235/236 in TSC1 null MEF cells. The settings on record: 1 h, pS6 ribosomal protein Ser235/236, 60 minutes incubation, read-out: p-S6 IC50. The data set is classed as cell-based. The procedure, abridged: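 TSC1−/− MEFs, seeded and held ≥20 h at 37 °C/5% CO2, were exposed to 8-step serial compound dilutions (0.02% DMSO final; DMSO vehicle control) for 60 min at 37 °C. Cells were then lysed on ice for 10 min and lysates spotted onto reverse protein array chips.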

Data set [4] is described as follows: In vivo penetration into dermis of topically treated pigs (skin PK). The settings on record: pig dermis in vivo, topical 0.5% in PG/EtOH 7:3; mean ± SEM, n=8. As to the method:
Small skin areas (4 cm^2) on the dorsolateral back of young domestic pigs were treated topically with 0.5% solutions at different time intervals (1-8 hrs) prior to drug level determination. Skin flaps with the treated sites in the centre were dissected and removed. The skin flaps were spread, and heated metal blocks placed on the test sites for 1 minute to induce separation of epidermis from the dermis. After removal of the loosened epidermal sheets, 1 mm thick dermal sheets were prepared from the treated, de-epidermized skin with a dermatome. From these sheets 6 mm punch samples (6 mm Ø) were collected and analysed for test compound concentration by LC/MS. The procedure described was done with careful avoidance of contamination of the dermal samples with compound attached superficially to the epidermis.
AUC means area under the curve, and is a well known term in clinical pharmacology. The AUC value describes the total uptake of the agent in a time interval.

Data set [5] can be described thus: In vitro skin penetration and permeation, pig skin in static Franz-type diffusion cells. The data set is classed as in vitro ADME. Particulars: 0.5% solution in propylene glycol, 48 hours exposure, mean ± SD of triplicate; for Skin concentration: after removal of stratum corneum; for Permeation rate: receiver. The method, then:
The skin penetration/permeation properties of two representative compounds of the present invention were tested as follows:
The compounds were applied as 0.5% solutions in propylene glycol to pig skin mounted in static Franz-type diffusion cells. At the end of a 48 hours exposure time, drug concentrations were measured in the skin (after removal of stratum corneum) and in the receiver.

Where [6] appears, read: absolute ethanol, excipient Ethanol abs.
[7] abbreviates: propylene glycol, excipient Propyleneglycol.

Converted amounts (≈) assume the structure as drawn. Bounds are passed on as bounds.

T1 sequence (P48736 144-1102 limits assumed): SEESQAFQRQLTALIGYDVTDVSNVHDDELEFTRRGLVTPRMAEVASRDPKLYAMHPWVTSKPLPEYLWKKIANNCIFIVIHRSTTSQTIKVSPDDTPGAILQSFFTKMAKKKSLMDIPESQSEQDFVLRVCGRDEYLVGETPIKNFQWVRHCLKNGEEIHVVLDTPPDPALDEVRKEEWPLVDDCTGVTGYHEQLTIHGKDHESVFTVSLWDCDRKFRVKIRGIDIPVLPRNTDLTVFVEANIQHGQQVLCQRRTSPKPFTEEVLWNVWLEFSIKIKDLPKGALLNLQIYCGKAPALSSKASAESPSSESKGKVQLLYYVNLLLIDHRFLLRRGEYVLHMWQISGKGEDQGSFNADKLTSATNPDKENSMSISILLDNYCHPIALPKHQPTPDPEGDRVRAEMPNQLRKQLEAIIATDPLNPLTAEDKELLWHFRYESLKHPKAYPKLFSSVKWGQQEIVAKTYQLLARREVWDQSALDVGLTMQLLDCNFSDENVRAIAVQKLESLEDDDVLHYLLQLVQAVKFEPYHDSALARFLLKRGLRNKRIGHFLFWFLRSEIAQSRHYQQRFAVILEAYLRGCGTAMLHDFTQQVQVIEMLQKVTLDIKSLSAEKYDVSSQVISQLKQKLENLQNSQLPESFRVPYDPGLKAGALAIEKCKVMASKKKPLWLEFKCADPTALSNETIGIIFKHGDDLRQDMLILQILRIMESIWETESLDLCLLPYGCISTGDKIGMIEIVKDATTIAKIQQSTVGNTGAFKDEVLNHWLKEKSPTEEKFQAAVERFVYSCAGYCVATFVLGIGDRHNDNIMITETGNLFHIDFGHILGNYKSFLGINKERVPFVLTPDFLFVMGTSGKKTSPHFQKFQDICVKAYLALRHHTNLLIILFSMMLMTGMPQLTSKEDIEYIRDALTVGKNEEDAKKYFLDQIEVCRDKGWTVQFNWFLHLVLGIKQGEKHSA

Take `Cc1nn(C(C)C)cc1-n1c(=O)n(C)c2cnc3ccc(-c4ccc(N(C)C)nc4)cc3c21` [Example 4.1, 8-(6-Dimethylamino-pyridin-3-yl)-1-(1-isopropyl-3-methyl-1H-pyrazol-4-yl)-3-methyl-1,3-dihydro-imidazo[4,5-c]quinolin-2-one]: the solubility in data set [1] (setting [6]) was 4.11 mg/mL (≈ 9.31 mM); in data set [1] (excipient PEG400) it was over 20 mg/mL; in data set [1] (setting [7]), over 20 mg/mL. Further, the Papp A→B in data set [2] was determined as 35.1 ×10⁻⁶ cm/s. Moreover, the values for the IC50 (on PI3K gamma; in data set [3]) were 407 nM and 15 nM, respectively.
`COCc1ncc(-c2ccc3ncc4c(c3c2)n(-c2cn(C)nc2C)c(=O)n4C)cc1OC(C)C` [Example 191.1, 1-(1,3-Dimethyl-1H-pyrazol-4-yl)-8-(5-isopropoxy-6-methoxymethyl-pyridin-3-yl)-3-methyl-1,3-dihydro-imidazo[4,5-c]quinolin-2-one]: the figures for the solubility in data set [1] (setting [6]), in data set [1] (excipient PEG400) and in data set [1] (setting [7]) were over 24 mg/mL, over 23 mg/mL and over 19 mg/mL, respectively. Further, the IC50 in data set [3] amounted to 4 nM.
With `Cc1nn(C)cc1-n1c(=O)n(C)c2cnc3ccc(-c4cncc(OC(C)C)c4)cc3c21` [Example 58.1, 1-(1,3-Dimethyl-1H-pyrazol-4-yl)-8-(5-isopropoxy-pyridin-3-yl)-3-methyl-1,3-dihydro-imidazo[4,5-c]quinolin-2-one], the solubility in data set [1] (setting [6]) was over 22 mg/mL; in data set [1] (excipient PEG400) it was over 26 mg/mL; in data set [1] (setting [7]) it was over 24 mg/mL. Besides, the Papp A→B in data set [2] amounted to 30.5 ×10⁻⁶ cm/s. Further, the “AUC (0-8 h) in dermis” value in data set [4] stood at 3.7 ± 1.3 µg·h/g. Further, the IC50 on PI3K gamma was determined as 95 nM; in data set [3], 3 nM. Further, in data set [5], the Skin concentration came out at 9.3 ± 6.2 µg/g. This compound also showed a Permeation rate in data set [5] of 0.5 ± 0.3 ng/cm^2/hr.
Regarding `Cc1nn(C)cc1-n1c(=O)n(C)c2cnc3ccc(-c4ccc(CO)nc4)cc3c21` [Example 16.2, 1-(1,3-Dimethyl-1H-pyrazol-4-yl)-8-(6-hydroxymethyl-pyridin-3-yl)-3-methyl-1,3-dihydro-imidazo[4,5-c]quinolin-2-one], the Papp A→B in data set [2] was 5.6 ×10⁻⁶ cm/s. Further, the figures for the IC50 (at PI3K gamma; in data set [3]) were 489 nM and 181 nM, respectively.
`Cc1ncc(-c2ccc3ncc4c(c3c2)n(-c2cn(C)nc2C)c(=O)n4C)cc1OC(C)C` [Example 84.1, 1-(1,3-Dimethyl-1H-pyrazol-4-yl)-8-(5-isopropoxy-6-methyl-pyridin-3-yl)-3-methyl-1,3-dihydro-imidazo[4,5-c]quinolin-2-one]: the solubility in data set [1] (setting [6]) is over 21 mg/mL; in data set [1] (excipient PEG400) it was over 19 mg/mL; in data set [1] (setting [7]) it was over 20 mg/mL. Besides, the Papp A→B in data set [2] was found to be 26.7 ×10⁻⁶ cm/s. The “AUC (0-8 h) in dermis” value in data set [4] stood at 2.8 ± 1.0 µg·h/g. This compound also registered a Skin concentration in data set [5] of 6.4 ± 3.5 µg/g. In data set [5], the Permeation rate is reported as under 0.4 ng/cm^2/hr. Further, the IC50 in data set [3] came out at 2 nM.
